Four compounds from US9981959B2, “Thiazolyl and oxazolyl urea, thiourea, guanidine and cyanoguanidine compounds as TrkA kinase inhibitors” (Array BioPharma Inc., priority 2012, dated 2018) can be followed below.

The structures appear in SMILES notation.

TrkA, sequence (P04629 440-796 limits assumed): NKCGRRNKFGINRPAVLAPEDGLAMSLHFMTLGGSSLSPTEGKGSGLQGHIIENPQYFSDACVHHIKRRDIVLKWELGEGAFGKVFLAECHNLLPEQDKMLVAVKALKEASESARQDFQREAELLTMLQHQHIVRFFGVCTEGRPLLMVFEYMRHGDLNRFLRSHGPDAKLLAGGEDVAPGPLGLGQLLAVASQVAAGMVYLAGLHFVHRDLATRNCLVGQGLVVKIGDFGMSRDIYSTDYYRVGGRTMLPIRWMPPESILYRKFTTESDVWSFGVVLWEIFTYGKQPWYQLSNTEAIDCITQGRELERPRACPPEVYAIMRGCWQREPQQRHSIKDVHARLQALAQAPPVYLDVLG

The assay addresses TrkA (Homo sapiens, UniProt P04629). Briefly: TrkA LanthaScreen Eu Kinase Binding Assay. More on the design: 6HIS tagged cytoplasmic domain from Invitrogen, Cat. No. PV3144; purchased Invitrogen PV3144. The following applies: averaged IC50; TR-FRET binding, 60 min, 22° C.; read-out: TrkA enzyme IC50. How it is done: TrkA binding activity was determined in a TrkA LanthaScreen™ Eu Kinase Binding Assay. 5 nM His-tagged recombinant human TrkA (6HIS tagged cytoplasmic domain from Invitrogen, Cat. No. PV3144) was incubated with 4 nM Alexa-Fluor® Tracer 236 (Invitrogen Cat. No. PV5592), 2 nM biotinylated anti-His (Invitrogen Cat. No. PV6090), and 2 nM europium-labeled Streptavidin (Invitrogen Cat. No. PV5899), in buffer (25 mM MOPS, pH 7.5, 5 mM MgCl2, 0.005% Triton X-100). Three fold serial dilutions of compounds of the invention in DMSO were added to a final percentage of 2% DMSO. After 60-minute incubation at 22° C., the reaction was measured using the EnVision mutlimode plate reader (PerkinElmer) via TR-FRET dual wavelength detection at […]. The percent of control was calculated using a ratiometric emission factor. The IC50 values were determined by fitting a four parameter model to the percent of control data.
Table A provides averaged IC50 values for compounds of the invention when tested in the assay of Example A, where A represents an averaged IC50 value <100 nM; and B represents an averaged IC50 value from 100 to 1,000 nM.
On to `Cc1c(OCCO)nn(-c2ccccc2)c1NC(=O)Nc1sc(C(F)(F)F)nc1-c1ccccc1` [Example 5, 1-(3-(2-hydroxyethoxy)-4-methyl-1-phenyl-1H-pyrazol-5-yl)-3-(4-phenyl-2-(trifluoromethyl)thiazol-5-yl)urea], for which the IC50 is below 100 nM.

Consider `Cc1nc(-c2ccccc2)c(NC(=O)Nc2c(C)c(-c3cnn(C)c3)nn2-c2ccccc2)o1` [Example 3, 1-(1′,4-dimethyl-1-phenyl-1H, 1′H-[3,4′-bipyrazol]-5-yl)-3-(2-methyl-4-phenyloxazol-5-yl)urea], for which the half-maximal inhibitory concentration (IC50) was 100 to 1000 nM.

`Cc1nc(-c2ccccc2)c(NC(=O)Nc2c(C)c(-c3cnn(C)c3)nn2-c2ccccc2)s1` [Example 1, 1-(1′,4-dimethyl-1-phenyl-1H,1′H-[3,4′-bipyrazol]-5-yl)-3-(2-methyl-4-phenylthiazol-5-yl)urea]: the IC50 is below 100 nM.

`Cc1c(C(N)=O)nn(-c2ccccc2)c1NC(=O)Nc1sc(C(F)(F)F)nc1-c1ccccc1` [Example 4, 4-methyl-1-phenyl-5-(3-(4-phenyl-2-(trifluoromethyl)thiazol-5-yl)ureido)-1H-pyrazole-3-carboxamide]: the IC50 was 100 to 1000 nM.

A word on the IC50: it is the concentration that inhibits the measured activity by half.
